Assay results reported in patent US6511662B1, “Treatment of cytomegalovirus using aminopeptidase N” (priority 1993, dated 2003).
Where two headings read alike, the source gives them in different places.

What was measured:
human aminopeptidase N = target: T1, human aminopeptidase N (Homo sapiens, UniProt P15144); assay: Aminopeptidase activity on intact cells with substrate alanine-p-nitroanilide; assay type: cell-based; conditions: concentrations as in footnote d
T1 construct: endogenous in cells
T1 sequence (P15144 whole entry): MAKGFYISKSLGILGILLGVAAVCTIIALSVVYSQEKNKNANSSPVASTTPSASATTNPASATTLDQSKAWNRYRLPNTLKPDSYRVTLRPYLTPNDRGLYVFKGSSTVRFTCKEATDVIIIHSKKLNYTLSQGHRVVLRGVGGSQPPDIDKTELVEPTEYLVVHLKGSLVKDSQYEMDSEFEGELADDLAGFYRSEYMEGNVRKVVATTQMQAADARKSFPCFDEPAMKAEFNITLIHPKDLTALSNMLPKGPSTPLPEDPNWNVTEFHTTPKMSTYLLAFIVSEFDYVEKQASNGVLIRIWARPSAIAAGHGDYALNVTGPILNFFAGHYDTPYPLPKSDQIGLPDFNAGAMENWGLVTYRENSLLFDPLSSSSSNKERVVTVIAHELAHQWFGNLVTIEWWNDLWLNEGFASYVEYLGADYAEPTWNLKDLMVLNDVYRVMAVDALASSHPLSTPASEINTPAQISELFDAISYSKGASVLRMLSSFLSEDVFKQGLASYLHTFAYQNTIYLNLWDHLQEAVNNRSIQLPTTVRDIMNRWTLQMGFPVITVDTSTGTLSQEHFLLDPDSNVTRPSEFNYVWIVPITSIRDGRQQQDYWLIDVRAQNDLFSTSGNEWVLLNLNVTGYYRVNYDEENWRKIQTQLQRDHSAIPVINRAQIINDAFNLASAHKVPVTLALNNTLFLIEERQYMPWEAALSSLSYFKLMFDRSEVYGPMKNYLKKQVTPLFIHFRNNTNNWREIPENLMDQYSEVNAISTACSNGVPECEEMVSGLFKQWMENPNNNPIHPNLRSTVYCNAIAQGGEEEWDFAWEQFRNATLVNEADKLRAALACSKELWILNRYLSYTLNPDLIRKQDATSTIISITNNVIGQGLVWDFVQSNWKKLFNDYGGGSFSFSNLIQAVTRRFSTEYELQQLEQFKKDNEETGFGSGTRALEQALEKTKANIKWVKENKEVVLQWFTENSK
Description: (§1) Method. Infection of HL734 with CMV RC256 was performed as described in FIG. 1 in the presence of serial dilutions of either UT71 or a control mouse ascites. Cells were washed, fixed with glutaraldhyde and assayed for β-gal expression by incubation with p-nitrophenyl-β-D-galactopyranoside (1 mg/ml) and the production of p-nitrophenol was measured spectrophotometrically at 410 nm. To measure the effect of aminopeptidase inhibitors on viral infection, HL734 were preincubated with increasing concentrations of bestatin for 1 hour at 37° C., infected with CMV strain AD169 at an MOI=1-10 or SFV at an MOI=30 for 1 hour at 37° C., washed, and incubated in fresh media for six hours at 37° C. After fixation in ice cold acetone/methanol (1/1), CMV nuclear antigens were detected with a mouse monoclonal to the 72K CMV mIE protein (NEW/Dupont, Inc.) followed by a phycoerythrine-labelled F(ab′)2 fragment of rabbit-anti mouse IgG Dakopatts, Inc). […] Binding of HCMV to MRC-5 cells was carried out by incubating increasing concentration of ^35S-HCMV with MRC-5 cells for 2 hours at 4° C. Incubation was carried out in the presence of mouse IgG (Sigma, Inc.) or anti-leuM7 (Becton Dickinson, Inc.) at a concentration of 16 μg/ml. Cells were washed five times with hepes-buffered saline, solubilized with 0.5 M NaOH, and cell-associated ^35S-labelled virions was measured quantitatively by liquid scintillation counting. Aminopeptidase activity on intact cells was measured by plating 1-5×10^4 cells in 96-well plates, incubating overnight in fresh media, and the washed and incubated with alanine-p-nitroanilide (6 mM) at 37° C. At various times, the free p-nitroanilide released was measured spectrophoto-metrically at 410 nm. The aminopeptidase activity was normalized to cell number measured by BCA protein assay (Pierce). All measurements were determined in triplicate.
To investigate whether the enzymatic activity of APN is necessary for CMV infection, four different aminopeptidase inhibitors, actinonin, bestatin, 2,2′-dipyridyl and 1,10-phenanthroline, were evaluated for their effect on enzymatic activity and CMV infection bestatin and actinonin are competitive inhibitors of arinoneptidases, ard 1,10-phenanthroline and 2,2′-dipyridyl inhibit aminopeptidase activity by chelating zinc required for enzyme function. […] Toxicity of these substances, measured by trypan blue uptake in cells treated with the inhibitors, was less than 10% in the highest concentrations used (data not shown).

[1] = tested on: Semliki Forest Virus (SFV); assay: Semliki Forest Virus infection of HL734 cells, immunocytochemistry; assay type: cell-based; conditions: concentrations as in footnote d
Description: (§2) FIG. 2. Ability to inhibit infection by compounds that interact with human aminopeptidase N. Panel a: HL734 cells were infected with CMV strain RC256 in the presence of serial dilutions of either U71 (▪) or control mouse ascites ([]). Infection was quantitatively determined by spectrophotometric measurement of the cleavage of p-nitrophenyl-β-D-galactopyranoside by β-gal. Panel b: HL734 were infected with CMV strain AD169 (▪) or Semliki Forest Virus (SFV) ([]) in the presence of increasing concentration of bestatin. Infection was quantitatively determined by immunocytochemistry using an antibody to the mIE protein of CMV or immune serum to SFV and enumeration of infected calls. Panel c: the binding of ^35S-HCMV to MRC-5 cells in the presence of mouse IgG (X) or antibody to APN (∘). Panel d: the aminopeptidase N activity on the surface of HL734 (▪), NIH-3T3 (∘), hAPN-3T3 ([]), or hAPNmut-3T3 (Δ) cells expressed as optical density of reaction product p-nitroanilide.
as §1, with “Incubation was carried out in the presence of mouse IgG (Sigma, Inc.) or anti-leuM7 (Becton Dickinson, Inc.) at a concentration of 16 μg/ml.” left out

CMV strain AD169 = assay: CMV AD169 infection of HL734 cells in the presence of aminopeptidase inhibitors, mIE immunocytochemistry; assay type: cell-based, human cytomegalovirus
Description: as §2, with “Ability to inhibit infection by compounds that interact with human aminopeptidase N. Panel a: HL734 cells were infected with CMV strain RC256 in the presence of serial dilutions of either U71 (▪) or control mouse ascites ([]).” left out
as §1
To investigate whether the enzymatic activity of APN is necessary for CMV infection, four different aminopeptidase inhibitors, actinonin, bestatin, 2,2′-dipyridyl and 1,10-phenanthroline, were evaluated for their effect on enzymatic activity and CMV infection bestatin and actinonin are competitive inhibitors of arinoneptidases, ard 1,10-phenanthroline and 2,2′-dipyridyl inhibit aminopeptidase activity by chelating zinc required for enzyme function.

[2] = chemical inhibitors at maximum non-toxic concentration: actinonin 5.45 mM, bestatin 4.35 mM, 1,10-phenanthroline 0.45 mM, 2,2′-dipyridyl 3.74 mM
[3] = Human betaherpesvirus 5, AD169, read-out: 50% inhibitory dose for CMV infection

Structure (SMILES)	Inhibition of aminopeptidase activity (human aminopeptidase N)	Inhibition of SFV Infection [1]	IC50 (CMV strain AD169; HL734 cells, CMV AD169, read-out: 50% inhibitory dose for CMV infection) [µM]	Inhibition of CMV Infection (CMV strain AD169; [2])	inhibition at 5450 µM (CMV strain AD169; Human betaherpesvirus 5, AD169, chemical inhibitors at maximum non-toxic concentration: actinonin 5.45 mM, bestatin 4.35 mM, 1,10-phenanthroline 0.45 mM, 2,2′-dipyridyl 3.74 mM) [%]	IC50 (CMV strain AD169; Human betaherpesvirus 5, HL734 cells, CMV AD169, read-out: 50% inhibitory dose for CMV infection) [µM]	IC50 (CMV strain AD169; [3]) [µM]	inhibition at 4350 µM (CMV strain AD169; Human betaherpesvirus 5, AD169, read-out: Inhibition of CMV Infection) [%]
c1ccc(-c2ccccn2)nc1 [2,2′-dipyridyl]	+ (+ = >50 inhibition compared to mouse IgG control)	− (− = no inhibition)	2800	+ (+ = >50 inhibition compared to mouse IgG control)	–	–	–	–
CCCCC[C@H](CC(=O)NO)C(=O)N[C@H](C(=O)N1CCC[C@H]1CO)C(C)C [actinonin]	+ (+ = >50 inhibition compared to mouse IgG control)	− (− = no inhibition)	–	–	> 50	3300	–	–
CC(C)C[C@H](NC(=O)[C@@H](O)[C@H](N)Cc1ccccc1)C(=O)O [bestatin]	+ (+ = >50 inhibition compared to mouse IgG control)	− (− = no inhibition)	–	–	–	–	2500	> 50
c1cnc2c(c1)ccc1cccnc12 [1,10-phenanthroline]	+ (+ = >50 inhibition compared to mouse IgG control)	− (− = no inhibition)	–	+ (+ = >50 inhibition compared to mouse IgG control)	–	–	250	–
